Entries after “also recorded” stand apart in the source; their conditions may differ.
Tests used:
[1] = test system: TMR-cC0-C2 (C0-C2 fragment of human cMyBP-C); test: FLT-TMR concentration-response assay (FLT of TMR on cC0-C2, no actin); type: binding
Procedure: (§1) Compounds identified as initial hits were further examined to determine the concentration–response curves for seven conditions ([1]): FMAL-actin alone identified actin-binding compounds that alter the FLT of FMAL-actin ([2]).
(§2) Fluorescence lifetime (FLT) measurements were acquired using a high-throughput FLT plate reader (Fluorescence Innovations, Inc) ([14], [27]), provided by Photonic Pharma LLC. […] The observed waveforms were analyzed as described previously ([15], [28]).
(§3) The primary hits were dissolved in DMSO to make a 10 mM stock solution, which was serially diluted in 96-well mother plates. Hits were screened at eight concentrations (0.5–100 μM). […] Compounds (1 μl) were transferred from the mother plates into 384-well plates using a Mosquito HV liquid handler (TTP Labtech Ltd, Hertfordshire, UK). The same procedure of dispensing as for the pilot screening was applied in the concentration-response assays. Concentration dependence of the FLT-FRET (E/EDMSO) or FLT-TMR (Δτ) change data was fit to a Hill equation only under certain conditions to help guide the eye (Fig. 4).

[2] = test system: FMAL-actin plus TMR-cC0-C2; test: Selleck library HTS, 473 nm excitation (FLT of FMAL-actin with TMR-cC0-C2, FLT-FRET); type: binding, human; settings: for 473-nm Δτ, Repeat 1 / 473-nm Δτ, Repeat 2: initial screen, 30 μM compound; for 473-nm z-score (based on avg Δτ): robust z-score, hit threshold ±4, 30 μM compound
Method in brief: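 Donor fluorescence lifetime was then recorded. Waveforms were fit to a single exponential, and ΔFLT was obtained after a moving-median plate-gradient correction (half-row window), rescaled by the median DMSO lifetime.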

[3] = test system: TMR-fC1-C2 (C1-C2 of fast skeletal MyBP-C); test: FLT-TMR concentration-response assay, fC1-C2; type: binding
Procedure: as §1, §2, §3

[4] = test system: rabbit fast skeletal (psoas) myofibrils; test: Skeletal myofibril ATPase assay; type: biochemical; settings: 50 μM compound; for effect on skeletal MF ATPase activity (in words): pCa 8 to pCa 4
Procedure: Rabbit psoas and bovine cardiac myofibrils were prepared as described in our previous study ([17]). An enzyme-coupled, NADH-linked ATPase assay was used to measure skeletal and cardiac myofibril ATPase activity in 96-well microplates at 23 °C. Ionic strength was maintained below 0.2 M, so myofilaments remained insoluble and stable ([32]). To achieve optimal enzymatic activities, buffers for skeletal and cardiac myofibrils differed slightly ([33], [34]): skeletal in 50 mM MOPS, 100 mM KCl, 5 mM MgCl2, 1 mM EGTA, pH 7.0; cardiac in 20 mM MOPS, 35 mM NaCl, 5 mM MgCl2, 1 mM EGTA, pH 7.0. Each well in the microplate contained an assay mix of 0.84 mM phosphoenolpyruvate, 0.17 mM NADH, 10 U/vol pyruvate kinase, 20 U/vol lactate dehydrogenase. The concentration of free Ca^2+ was controlled by EGTA buffering ([35]). Myofibrils were dispensed in microplates with a multichannel pipette and were incubated with assay mix plus compound of interest for 20 min at 23 °C. The concentration of myofibrils used was 0.01 mg/ml for skeletal and 0.05 mg/ml for cardiac myofibrils. The assay was started upon the addition of ATP, at a final concentration of 2.1 mM (total volume to 200 μl), and absorbance was recorded at 340 nm in a SpectraMax Plus microplate spectrophotometer from Molecular Devices. The steady-state myofibrillar ATPase rate was measured from NADH oxidation, measured as the rate of decrease in absorption at 340 nm for 30 min, with absorption data collected every 15 s. All data and statistical analysis of steady-state kinetics were conducted with the OriginPro program. The results were fitted with the Hill equation:(6) V=V0+(Vmax/1+10^−n∗^(pCa50−pCa)) where V is the ATPase rate and n is the Hill coefficient.
ATPase activity is reported on the μmol ATP/mg protein/min scale. Average data are presented as mean ± SD. Sample means are derived from three different myofibril preps (N = 3), each done in duplicate (n = 6).
The effects of compounds on ATPase activity of myofibrils were determined in the presence of 50 μM compound, across a 12-point pCa range from 4.0 (activation) to 8.0 (relaxation). The calcium sensitivity (pCa50) was determined by fitting the curves to the Hill equation. In all experiments, a 1% DMSO-only control was included. The normalized ATPase activity of the selected compounds can be found in Figure 6.

TMR-cC0-C2 = test: Selleck library HTS, 532 nm excitation (FLT of TMR-cC0-C2 in presence of FMAL-actin); type: binding, human; settings: for 532-nm Δτ, Repeat 1 / 532-nm Δτ, Repeat 2: initial screen, 30 μM compound; for 532-nm z-score (based on avg Δτ): robust z-score, hit threshold ±4, 30 μM compound
[5] = test system: PKA-phosphorylated TMR-cC0-C2 (cC0-C2#P); test: FLT-TMR concentration-response assay, PKA-phosphorylated cC0-C2; type: binding, human
Procedure: as §1, §2, §3

[6] = test system: FMAL-actin/TMR-cC0-C2 interaction; test: FLT-FRET concentration-response assay, FMAL-actin plus TMR-cC0-C2; type: binding, human; settings: for specificity of FLT-FRET effect for unphosphorylated over phosphorylated cC0-C2: effect on cC0-C2 compared to phosphorylated cC0-C2 (Tables 1 and 2); for effect on FLT-FRET / binding between FMAL-actin and TMR-cC0-C2 (in words): unphosphorylated cC0-C2; for fold effect on increased FRET (or binding) (Table 2): comparison not given
Procedure: as §1, §2, §3

[7] = test system: FMAL-actin/TMR-fC1-C2 interaction; test: FLT-FRET concentration-response assay, FMAL-actin plus TMR-fC1-C2; type: binding
Procedure: as §1, §2, §3

[8] = concentration-response, no actin

Compound	effect on skeletal MF ATPase activity (in words) [4]	cC0-C2/cC0-C2#P (ratio of FLT changes) ([1]; 60 μM compound)	cC0-C2 FLT change (% change from DMSO, FLT of TMR-MyBP-C) ([1]; 60 μM compound) [%]	473-nm Δτ, Repeat 1 [2] [ns]	473-nm Δτ, Repeat 2 [2] [ns]	473-nm z-score (based on avg Δτ) [2]	cC0-C2/fC1-C2 (ratio of FLT changes) ([3]; 60 μM compound)	fC1-C2 FLT change (% change from DMSO, FLT of TMR-MyBP-C) ([3]; 60 μM compound) [%]	532-nm Δτ, Repeat 1 (TMR-cC0-C2) [ns]	532-nm Δτ, Repeat 2 (TMR-cC0-C2) [ns]	532-nm z-score (based on avg Δτ) (TMR-cC0-C2)	cC0-C2#P FLT change (% change from DMSO, FLT of TMR-MyBP-C) ([5]; 60 μM compound) [%]	specificity of FLT-FRET effect for unphosphorylated over phosphorylated cC0-C2 [6]	other results
C[C@@H](O)[C@H]1C(=O)N2C(C(=O)[O-])=C(S[C@@H]3CN[C@H](C(=O)Nc4cccc(C(=O)O)c4)C3)[C@H](C)[C@H]12.[Na+] [Ertapenem sodium]	marked increase in ATPase activity at pCa 8; also recorded: affected ATPase	1.3	10.2	0.353	0.231	16.37	0.8	12.2	0.079	0.157	7.23	8.0	–	effect on Ca^2+-sensitivity of skeletal MF ATPase (in words) [4]: altered Ca^2+ sensitivity
CCCCC(=O)N(Cc1ccc(-c2ccccc2-c2nnn[nH]2)cc1)[C@H](C(=O)O)C(C)C [Valsartan]	–	–	–	0.149	0.058	5.83	–	–	0.000	0.013	0.44	–	stronger reduction of FRET with non-phosphorylated than phosphorylated	effect on FLT-FRET / binding between FMAL-actin and TMR-cC0-C2 (in words) [6]: decreased; effect on FLT-FRET / binding between FMAL-actin and TMR-fC1-C2 (in words) [7]: decreased
C[C@@H]1O[C@@H](O[C@H]2[C@H](O[C@H]3CC[C@@]4(C)[C@@H](CC[C@]5(C)[C@@H]4CC=C4[C@@H]6CC(C)(C)CC[C@]6(C(=O)O)CC[C@]45C)[C@]3(C)CO)OC[C@H](O)[C@@H]2O)[C@H](O)[C@H](O)[C@H]1O [α-Hederin]	–	0.9	6.7	-0.087	-0.051	-3.83	1.0	6.7	0.105	0.175	8.58	7.1	13–54 fold	fold effect on increased FRET (or binding) (Table 2) [6]: fivefold or greater
Sacubitril/valsartan [Sacubitril/valsartan (LCZ696)]	–	–	–	0.140	0.095	6.60	–	–	-0.025	0.012	-0.37	–	stronger reduction of FRET with non-phosphorylated than phosphorylated	effect on FLT of TMR-cC0-C2 (in words) [1, 8]: do not affect; effect on FLT-FRET / binding between FMAL-actin and TMR-cC0-C2 (in words) [6]: decreased; effect on FLT of TMR-fC1-C2 (in words) [3, 8]: do not affect; effect on FLT-FRET / binding between FMAL-actin and TMR-fC1-C2 (in words) [7]: decreased
Verteporfin	–	–	–	0.093	0.064	4.41	–	–	0.065	0.075	4.32	–	–	cC0-C2/cC0-C2#P (ratio of FLT changes) ([1]; 10 μM compound (∗)): 0.8; cC0-C2 FLT change (% change from DMSO, FLT of TMR-MyBP-C) ([1]; 10 μM compound (∗)): 5.5%; fold effect on increased FRET (or binding) (Table 2) [6]: fivefold or greater; specificity of FLT-FRET effect for cC0-C2 over fC1-C2 ([6]; effect on cC0-C2 compared to fC1-C2 (Tables 1 and 2)): 22.4 fold; cC0-C2/fC1-C2 (ratio of FLT changes) ([3]; 10 μM compound (∗)): 2.2; fC1-C2 FLT change (% change from DMSO, FLT of TMR-MyBP-C) ([3]; 10 μM compound (∗)): 2.5%; cC0-C2#P FLT change (% change from DMSO, FLT of TMR-MyBP-C) ([5]; 10 μM compound (∗)): 6.8%

The next lines start with results.

effect on skeletal MF ATPase activity (in words) [4]	Compound	cC0-C2/cC0-C2#P (ratio of FLT changes) ([1]; 60 μM compound)	cC0-C2 FLT change (% change from DMSO, FLT of TMR-MyBP-C) ([1]; 60 μM compound) [%]	473-nm Δτ, Repeat 1 [2] [ns]	473-nm Δτ, Repeat 2 [2] [ns]	473-nm z-score (based on avg Δτ) [2]	cC0-C2/fC1-C2 (ratio of FLT changes) ([3]; 60 μM compound)	fC1-C2 FLT change (% change from DMSO, FLT of TMR-MyBP-C) ([3]; 60 μM compound) [%]	532-nm Δτ, Repeat 1 (TMR-cC0-C2) [ns]	532-nm Δτ, Repeat 2 (TMR-cC0-C2) [ns]	532-nm z-score (based on avg Δτ) (TMR-cC0-C2)	cC0-C2#P FLT change (% change from DMSO, FLT of TMR-MyBP-C) ([5]; 60 μM compound) [%]	specificity of FLT-FRET effect for unphosphorylated over phosphorylated cC0-C2 [6]	other results
affected ATPase	NC(=O)c1cc[n+](CC2=C(C(=O)O)N3C(=O)[C@@H](NC(=O)[C@@H](c4ccccc4)S(=O)(=O)[O-])[C@H]3SC2)cc1 [Cefsulodin sodium]	1.1	9.1	0.394	0.316	19.91	0.8	11.5	0.114	0.083	6.07	8.1	–	effect on skeletal MF ATPase activity (in words) ([4]; listed as Cefsoludin sodium): affected
affected	O=C(Nc1cccc2c(=O)cc(-c3nnn[nH]3)oc12)c1ccc(OCCCCc2ccccc2)cc1 [Pranlukast]	0.6	30.7	0.061	0.008	1.95	0.6	50.3	0.073	0.116	5.80	50.1	–	effect on skeletal MF ATPase activity (in words) ([4]; listed as Pranleukast): affected ATPase

From publication PMC10692721, “Drug discovery for heart failure targeting myosin-binding protein C” (The Journal of Biological Chemistry, 2023)
